Laboratory results published in patent US9790169B2, “IDO inhibitors” (BRISTOL-MYERS SQUIBB COMPANY, priority 2015, dated 2017).

Biological target: human IDO1 (Homo sapiens, UniProt P14902)
Test: Assessment of human IDO-1 inhibitory activity in HEK cells (human IDO1/HEK293 cells, kynurenine read-out with Ehrlich reagent, absorbance 490 nm)
Assay type: cell-based
Design: expressed in transfected cells
Conditions: HEK Human IDO-1 cellular assay
How it was run: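 Kynurenine output from stably IDO1-transfected HEK293 cells (10,000/well, phenol red-free RPMI, 10% FBS) after 20 h compound exposure at 37 °C. The reaction was stopped with 0.2% TCA and heated 30 min at 50 °C, then the supernatant was mixed with Ehrlich reagent and read at 490 nm. IC50 was set against DMSO and a 500 nM reference standard as 0 and 100% inhibition.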

human IDO1, sequence (P14902 whole entry): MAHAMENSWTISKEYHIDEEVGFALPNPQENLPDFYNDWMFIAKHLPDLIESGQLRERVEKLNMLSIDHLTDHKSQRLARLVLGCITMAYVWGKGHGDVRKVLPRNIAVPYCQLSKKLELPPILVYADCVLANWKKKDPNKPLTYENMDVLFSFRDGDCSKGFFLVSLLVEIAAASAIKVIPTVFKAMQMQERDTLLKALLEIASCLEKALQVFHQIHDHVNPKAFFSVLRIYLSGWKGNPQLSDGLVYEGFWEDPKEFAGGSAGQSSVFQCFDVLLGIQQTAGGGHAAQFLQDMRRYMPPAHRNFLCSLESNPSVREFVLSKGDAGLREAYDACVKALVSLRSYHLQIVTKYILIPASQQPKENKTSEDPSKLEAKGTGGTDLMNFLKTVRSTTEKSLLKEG

IC50 | SMILES
> 50 nM | COCC(CC(=O)OC)c1ccc(N(CC(C)C)C2CCCCC2)c(NC(=O)Nc2ccc(C)cc2)c1 (racemic) [Example 1223, (+/−)-Methyl 3-(4-(cyclohexyl(isobutyl)amino)-3-(3-(p-tolyl)ureido)phenyl)-4-methoxybutanoate]
< 5 nM | CCCOc1ncc(Nc2cc(C(CC)CC(=O)O)ccc2N(CC(C)C)C2CCCCC2)cn1 (single isomer, unassigned) [Example 647, 3-(4-(cyclohexyl(isobutyl)amino)-3-((2-propoxypyrimidin-5-yl)amino)phenyl)pentanoic acid]
< 5 nM | CCCN(CC1CC1)c1ccc(C(CC)CC(=O)O)cc1Nc1ccc(Cl)cc1 (single isomer, unassigned) [Example 656 E1, 3-(3-((4-Chlorophenyl)amino)-4-((cyclopropylmethyl)(propyl)amino)phenyl)pentanoic acid]
> 50 nM | CCC(CC(=O)O)c1ccc(N(CC2CC2)C(C)C)c(Nc2ccc3nc(C)sc3c2)c1 (single isomer, unassigned) [Example 716, 3-(4-((Cyclopropylmethyl)(isopropyl)amino)-3-((2-methylbenzo[d]thiazol-6-yl)amino)phenyl)pentanoic acid]
< 5 nM | CCC(CC(=O)O)c1cc(F)c(N(CC(C)C)CC(C)C)c(NC(=O)Nc2ccc(Cl)cc2F)c1 (single isomer, unassigned) [981-1]
< 5 nM | CCOc1ccc(NC(=O)Nc2cc(C(COC)CC(=O)O)ccc2N(CC(C)C)C2CCCCC2)cc1 (single isomer, unassigned) [Example 1235, 3-(4-(Cyclohexyl(isobutyl)amino)-3-(3-(4-ethoxyphenyl)ureido)phenyl)-4-methoxybutanoic acid]
< 5 nM | CCCN(c1ccc(C(CC)CC(=O)O)cc1NC(=O)Nc1ccc(OC)cc1F)C1CCOCC1 (racemic) [Example 609, 3-(3-(3-(2-Fluoro-4-methoxyphenyl)ureido)-4-(propyl(tetrahydro-2H-pyran-4-yl)amino)phenyl)pentanoic acid]
< 5 nM | CC[C@H](CC(=O)O)c1ccc(N(CC2CC2)CC(C)(C)O)c(Nc2ccc(C#N)cc2)c1 (single isomer, unassigned) [Example 272]
< 5 nM | CCC(CC(=O)O)c1ccc(N(CC(C)C)CC(C)(C)O)c(Nc2ccc(Cl)cc2)c1 (racemic) [Example 453, 3-(3-((4-chlorophenyl)amino)-4-((2-hydroxy-2-methyl-propyl)(isobutyl)amino)phenyl) pentanoic acid]
> 50 nM | CCC(CC(=O)O)c1cc(F)c(N(CC(C)C)CC(C)C)c(Nc2ccnc(N3CCOCC3)n2)c1 (single isomer, unassigned) [Example 105, 3-(4-(diisobutylamino)-3-fluoro-5-((2-morpholinopyrimidin-4-yl)amino)phenyl) pentanoic acid]
< 5 nM | CCC(CC(=O)O)c1ccc(N(CC(C)C)C2CCCCC2)c(NC(=O)Cc2ccc(Cl)cc2F)c1 (single isomer, unassigned) [Example 1096 E1]
< 5 nM | CCC(CC(=O)O)c1ccc(N(CC(C)C)C2CCCCC2)c(NC(=O)Cc2cc(F)ccc2F)c1 (single isomer, unassigned) [Example 1098 E2]
> 50 nM | CC[C@@H](CC(=O)O)c1ccc(N(CC)C2CCOCC2)c(Nc2nc3cc(C)nn3cc2F)c1 (single isomer, unassigned) [Example 469]
> 50 nM | CCC(CC(=O)O)c1ccc(N(CC(C)C)CC(C)(C)O)c(Nc2ccc3nc(C)sc3c2)c1 (racemic) [Example 452, 3-(4-((2-Hydroxy-2-methylpropyl)(isobutyl)amino)-3-((2-methylbenzo[d]thiazol-6-yl)amino)phenyl)pentanoic acid]
< 5 nM | COCC(CC(=O)O)c1cc(F)c(N(CC(C)C)C2CCCCC2)c(NC(=O)Nc2ccc(OC(F)(F)F)cc2)c1 (single isomer, unassigned) [Example 1163, 3-(4-(cyclohexyl(isobutyl)amino)-3-fluoro-5-(3-(4-(trifluoromethoxy)phenyl)ureido)phenyl)-4-methoxybutanoic acid]
> 50 nM | CC(CC(=O)O)c1ccc(N2C[C@@H](C)O[C@@H](C)C2)c(Nc2ccc(F)cc2)c1 (single isomer, unassigned) [Example 738]
< 5 nM | CCC(CC(=O)O)c1ccc(N(CC(C)C)C2CCCCC2)c(Nc2ccc3c(c2)OC(F)(F)O3)c1 (single isomer, unassigned) [Example 299, 3-(4-(Cyclohexyl(isobutyl)amino)-3-((2,2-difluorobenzo[d][1,3]dioxol-5-yl)amino)phenyl)pentanoic acid]
< 50 nM | CCOc1ncc(Nc2cc([C@@H](COC)CC(=O)O)ccc2N(CC)C2CCOCC2)cn1 (single isomer, unassigned) [Example 351]
> 50 nM | CCC(CC(=O)O)c1ccc(N2CCC[C@H]2C(C)(C)O)c(NC(=O)Nc2cc(C)on2)c1 (single isomer, unassigned) [Example 815]
< 50 nM | CCOc1ncc(Nc2cc([C@@H](CC)CC(=O)O)ccc2N(CC)C2CCOCC2)cn1 (single isomer, unassigned) [Example 455]

IC50 | SMILES
< 5 nM | CCC(CC(=O)O)c1ccc(N(CC)C2CCCOC2)c(Nc2ccc(C#N)cc2)c1 (single isomer, unassigned) [Example 70, 3-(3-((4-cyanophenyl)amino)-4-(ethyl(tetrahydro-2H-pyran-3-yl)amino)phenyl)pentanoic acid]
> 50 nM | CCC(CC(=O)O)c1ccc(N2CCC[C@H]2C(C)(C)F)c(Nc2ccc3c(c2)OC(F)(F)O3)c1 (single isomer, unassigned) [Example 796]
> 50 nM | CCN(c1ccc(C(CC(=O)O)c2ccccc2)cc1NC(=O)Nc1cc(C)on1)C1CCOCC1 (single isomer, unassigned) [Example 587, 3-(4-(ethyl(tetrahydro-2H-pyran-4-yl)amino)-3-(3-(5-methylisoxazol-3-yl)ureido)phenyl)-3-phenylpropanoic acid]
> 50 nM | CC(CC(=O)O)c1ccc(N2C[C@@H](C)O[C@@H](C)C2)c(Nc2ccc(C#N)cc2)c1 (single isomer, unassigned) [Example 737]
< 50 nM | CCOc1ccc(Nc2cc([C@H](CC)CC(=O)O)ccc2N(CC(C)(C)O)C2CCOCC2)c(F)c1 (single isomer, unassigned) [Example 206]
> 50 nM | CCOc1ccc(C(=O)Nc2cc(C(CC)CC(=O)O)ccc2N(CC(C)C)C2CCCCC2)cc1 (racemic) [Example 1073, 3-(4-(Cyclohexyl(isobutyl)amino)-3-(4-ethoxybenzamido)phenyl)pentanoic acid]
< 50 nM | CC[C@H](CC(=O)O)c1ccc(N2C[C@@H](C)O[C@@H](C)C2)c(Nc2ccc(Cl)cc2)c1 (single isomer, unassigned) [Example 761]
< 50 nM | COC(Cc1ccc(N(CC(C)C)C2CCCCC2)c(NC(=O)Nc2ccc(C#N)cc2F)c1)C(=O)O (racemic) [Example 1011, 3-(3-(3-(4-Cyano-2-fluorophenyl)ureido)-4-(cyclohexyl(isobutyl)amino)phenyl)-2-methoxypropanoic acid]
< 50 nM | CCC(CC(=O)O)c1ccc(N2CCC[C@H]2C(C)(C)F)c(Nc2ccc3c(c2)OC(F)(F)O3)c1 (single isomer, unassigned) [Example 790]
< 5 nM | CC[C@H](CC(=O)O)c1ccc(N(CC)C2CCOCC2)c(Nc2cnc(OCC3CC3)nc2)c1 (single isomer, unassigned) [Example 520]
< 5 nM | CCOc1ncc(Nc2cc(C(CC)CC(=O)O)ccc2N(CC2CC2)C2CCOCC2)cn1 (single isomer, unassigned) [Example 705, 3-(4-((cyclopropylmethyl) (tetrahydro-2H-pyran-4-yl)amino)-3-((2-ethoxypyrimidin-5-yl)amino)phenyl)pentanoic acid]
< 5 nM | CCC(CC(=O)O)c1ccc(N(CC)C2CCOCC2)c(NC(=O)Nc2ccc(C)cc2)c1 (single isomer, unassigned) [Example 487 Enantiomer 1, 3-(4-(Ethyl(tetrahydro-2H-pyran-4-yl)amino)-3-(3-(p-tolyl)ureido)phenyl)pentanoic acid]
> 50 nM | CC[C@@H](CC(=O)O)c1ccc(N(CC)C2CCOCC2)c(NC(=O)Nc2cc(C)on2)c1 (single isomer, unassigned) [Example 497]
< 50 nM | CCN(c1ccc(C(C)CC(=O)O)cc1Nc1ccc2nc(C)sc2c1)C1CCOCC1 (single isomer, unassigned) [Example 617, 3-(4-(ethyl(tetrahydro-2H-pyran-4-yl)amino)-3-((2-methylbenzo[d]thiazol-6-yl)amino)phenyl)butanoic acid]
< 50 nM | CCC(CC(=O)O)c1ccc(N(CC2CC2)C2CCOCC2)c(Nc2ccc3c(c2)OC(F)(F)O3)c1 (single isomer, unassigned) [Example 704, 3-(4-((cyclopropylmethyl) (tetrahydro-2H-pyran-4-yl)amino)-3-((2,2-difluorobenzo[d][1,3]dioxol-5-yl)amino)phenyl) pentanoic acid]
> 50 nM | CC[C@@H](CC(=O)O)c1ccc(N(CC)C2CCOCC2)c(Nc2ccn3nc(C)c(F)c3n2)c1 (single isomer, unassigned) [Example 473]
> 50 nM | COCC(CC(=O)O)c1ccc(N(CC2CC2)C2CCOCC2)c(Nc2ccc3nc(C)sc3c2)c1 (single isomer, unassigned) [Example 689, 3-(4-((cyclopropylmethyl) (tetrahydro-2H-pyran-4-yl)amino)-3-((2-methylbenzo[d]thiazol-6-yl)amino)phenyl)-4-methoxybutanoic acid]
< 50 nM | COCC(CC(=O)O)c1ccc(N(CC(C)C)C2CCCCC2)c(NC(=O)Nc2cncnc2)c1 (racemic) [Example 990, (+/−)-3-(4-(Cyclohexyl(isobutyl)amino)-3-(3-(pyrimidin-5-yl)ureido)phenyl)-4-methoxybutanoic acid]
< 5 nM | CC[C@@H](CC(=O)O)c1ccc(N(CC)C2CCCCC2)c(Nc2ccc(Cl)cc2)c1 (single isomer, unassigned) [Example 279]
